pIC50: −log10 of the molar value.
Key:
MMP-13 = MMP-13 (Homo sapiens, UniProt P45452); experiment: MMP-13 inhibition (thiopeptide or fluorescent peptide substrate); type: biochemical; settings: read-out: MMP-13 IC50
[1] = target: TNF-α converting enzyme (TACE) (Homo sapiens, UniProt P78536); experiment: TACE inhibition (fluorescent peptidyl substrate); type: biochemical; settings: read-out: TACE IC50
Method: Using 96-well black microtiter plates, each well receives a solution composed of 10 μL TACE (final concentration 1 μg/mL), 70 μL Tris buffer, pH 7.4 containing 10% glycerol (final concentration 10 mM), and 10 μL of test compound solution in DMSO (final concentration 1 μM, DMSO concentration <1%) and incubated for 10 minutes at room temperature.
The reaction is read (excitation 340 nm, emission 420 nm) for 10 min. and the increase in fluorescence over time is plotted as a linear line. The slope of the line is calculated and represents the reaction rate.
The linearity of the reaction rate is confirmed (r^2>0.85). The mean (x±sem) of the control rate is calculated and compared for statistical significance (p<0.05) with drug-treated rates using Dunnett's multiple comparison test.

MMP-9 = MMP-9 (Homo sapiens, UniProt P14780); experiment: MMP-9 inhibition (thiopeptide or fluorescent peptide substrate); type: biochemical; settings: read-out: MMP-9 IC50
Chain of MMP-9 (P14780 94-707): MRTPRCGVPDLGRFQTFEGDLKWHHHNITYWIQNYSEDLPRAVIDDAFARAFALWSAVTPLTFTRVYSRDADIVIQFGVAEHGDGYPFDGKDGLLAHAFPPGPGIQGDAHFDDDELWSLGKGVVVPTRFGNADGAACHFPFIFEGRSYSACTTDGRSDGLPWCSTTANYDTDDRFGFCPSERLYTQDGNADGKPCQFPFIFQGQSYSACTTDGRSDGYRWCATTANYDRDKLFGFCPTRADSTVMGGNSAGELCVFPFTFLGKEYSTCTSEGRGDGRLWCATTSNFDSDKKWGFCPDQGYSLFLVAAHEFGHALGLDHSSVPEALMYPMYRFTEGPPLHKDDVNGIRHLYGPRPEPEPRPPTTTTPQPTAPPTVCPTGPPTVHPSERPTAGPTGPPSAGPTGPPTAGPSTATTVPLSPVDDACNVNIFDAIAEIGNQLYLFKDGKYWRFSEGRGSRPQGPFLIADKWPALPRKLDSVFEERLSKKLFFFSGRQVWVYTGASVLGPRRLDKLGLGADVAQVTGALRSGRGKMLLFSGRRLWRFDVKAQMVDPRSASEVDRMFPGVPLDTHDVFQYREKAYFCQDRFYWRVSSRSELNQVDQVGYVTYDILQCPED

THP-1 cells = experiment: THP-1 soluble protein assay, soluble TNF-α (ELISA); type: cell-based, human; settings: Homo sapiens, THP-1, 3 μM; THP-1 cells; read-out: THP % Inhibition @ 3 μM
Method: Each vial of cells are cultured for about two weeks prior to being used for an assay and then are used for only 4 to 6 weeks to screen compounds.
Cell exposure to DMSO was limited to 0.1% final concentration. […] Plates are placed into an incubator set at 5% CO2 and at 37° C. After 4 hours of incubation, 300 ml/well of tissue culture supernatant (TCS) is removed for use in an TNF-α ELISA.
Percent change in each soluble protein evaluated from the “vehicle positive control” was calculated for each compound concentration with the following formula:
% Change=pg/ml (compound)−pg/ml (veh pos control)/(veh pos control)−pg/ml (veh neg control)×100
For the soluble protein (TNF-α, p75/80, p55/60, IL-8) studies under stimulated conditions, the mean pg/ml of duplicate wells were determined and the results expressed as percent change from “vehicle positive control”.

MMP-1 = target: T1, MMP-1 (Homo sapiens, UniProt P03956); experiment: MMP-1 inhibition (thiopeptide or fluorescent peptide substrate); type: biochemical; settings: read-out: MMP-1 IC50
T1 sequence (P03956 100-469): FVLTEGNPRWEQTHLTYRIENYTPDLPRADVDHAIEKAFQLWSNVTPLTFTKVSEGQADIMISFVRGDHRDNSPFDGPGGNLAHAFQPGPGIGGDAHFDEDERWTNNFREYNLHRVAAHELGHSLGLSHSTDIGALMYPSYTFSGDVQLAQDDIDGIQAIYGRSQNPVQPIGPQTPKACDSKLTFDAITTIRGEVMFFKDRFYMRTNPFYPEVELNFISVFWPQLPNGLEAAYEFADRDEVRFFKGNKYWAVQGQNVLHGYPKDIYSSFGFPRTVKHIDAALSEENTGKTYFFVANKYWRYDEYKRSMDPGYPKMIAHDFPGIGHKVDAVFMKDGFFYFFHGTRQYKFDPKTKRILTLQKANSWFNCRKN

Chain of TNF-α converting enzyme (TACE) (P78536 215-824, species assumed): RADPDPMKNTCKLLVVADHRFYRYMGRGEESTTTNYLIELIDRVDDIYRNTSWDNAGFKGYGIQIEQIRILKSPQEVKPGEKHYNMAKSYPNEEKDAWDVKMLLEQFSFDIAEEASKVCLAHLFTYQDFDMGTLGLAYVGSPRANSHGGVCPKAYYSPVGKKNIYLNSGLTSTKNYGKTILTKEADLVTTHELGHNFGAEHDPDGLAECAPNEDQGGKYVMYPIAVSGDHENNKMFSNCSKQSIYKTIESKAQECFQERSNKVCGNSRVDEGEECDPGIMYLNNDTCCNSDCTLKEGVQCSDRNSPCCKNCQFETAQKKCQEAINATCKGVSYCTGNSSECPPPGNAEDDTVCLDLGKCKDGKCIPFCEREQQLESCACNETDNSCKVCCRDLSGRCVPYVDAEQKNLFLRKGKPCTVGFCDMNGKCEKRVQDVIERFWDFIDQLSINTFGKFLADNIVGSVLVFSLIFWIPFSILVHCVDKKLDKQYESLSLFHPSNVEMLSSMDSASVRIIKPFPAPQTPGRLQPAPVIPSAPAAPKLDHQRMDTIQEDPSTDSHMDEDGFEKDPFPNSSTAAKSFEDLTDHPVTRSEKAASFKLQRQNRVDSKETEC

Compound | pIC50 (MMP-13) | melting point [°C] | pIC50 [1] | pIC50 (MMP-9) | inhibition at 3 µM (THP-1 cells) [%] | pIC50 (MMP-1)
CC#CCOc1ccc(S(=O)(=O)NC(C(=O)NO)C(C)(C)SCC)cc1 (stereo not drawn) [Example 159, 2-[(4-but-2-ynyloxy-Benenesulfonyl)-amino]-N-hydroxy-3-methyl-3-ethylsulfanyl-butyramide] | 7.38 | 46 to 50 | 7.92 | 6.37 | 76 | 6.07
CC#CCOc1ccc(S(=O)(=O)NC(C(=O)NO)C(C)(C)SCCC)cc1 (stereo not drawn) [Example 160, 2-[(4-but-2-ynyloxy-Benenesulfonyl)-amino]-N-hydroxy-3-methyl-3-propylsulfanyl-butyramide] | 7.19 | 152 to 155 | 7.82 | 6.00 | 67 | 5.85
CC#CCOc1ccc(S(=O)(=O)NC(C(=O)NO)C(C)(C)SCc2ccccc2)cc1 (stereo not drawn) [Example 162] | 8.08 | 92 to 95 | 7.72 | 6.86 | 49 | 6.51
CC#CCOc1ccc(S(=O)(=O)NC(C(=O)NO)C(C)(C)SCc2nccn2C)cc1 (stereo not drawn) [Example 163] | 7.33 | 112 to 115 | 7.74 | 6.51 | 77 | 5.76
CC#CCOc1ccc(S(=O)(=O)NC(C(=O)NO)C(C)(C)SCCN2CCOCC2)cc1 (stereo not drawn) [Example 164] | 7.70 | 72 | 7.19 | 6.69 | 70 | 5.80
CC#CCOc1ccc(S(=O)(=O)NC(C(=O)NO)C(C)(C)SCC(=O)OC(C)(C)C)cc1 (stereo not drawn) [Example 165] | 6.75 | 47 to 52 | 7.16 | 6.23 | 84 | 5.61

Reference: patent publication US6716833B2, “Acetylenic α-amino acid-based sulfonamide hydroxamic acid tace inhibitors” (priority 1999, dated 2004)
